Data as given in PMC11401813, “Grewiifopenes A–K, bioactive clerodane diterpenoids from Casearia grewiifolia Vent” (Natural Products and Bioprospecting, 2024).
In brackets after ≈: the same amount, converted by molar mass. Like-named read-outs stand apart in the source and are kept apart here.

What was measured:
[1] = system: Staphylococcus epidermidis (ATCC 12228); test: Antibacterial broth microdilution (MIC/MBC), S. epidermidis; format: cell-based; details: ATCC12228
Method: (§1) In addition, the isolates were also evaluated for their antibacterial activity towards three strains including Bacillus cereus (ATCC 11778), Staphylococcus aureus (ATCC 6538) and Staphylococcus epidermidis (ATCC 12228) using penicillin G and gentamicin as the antibiotic controls (Table 5). […] Finally, the inhibitory activity of aromatase by using a CYP19 screening kit was investigated. The aromatase (also called estrogen synthase) is responsible for converting the non-aromatic ring A of androgens to estrogens, which are related to the proliferation of breast cancer cells.
(§2) The tested strains, Staphylococcus aureus (S. aureus) ATCC6538, Staphylococcus epidermidis (S. epidermidis) ATCC12228, and Bacillus cereus (B. cereus) ATCC11778 were obtained from the American Type Culture Collection (ATCC).
(§3) All tested species were grown on Mueller Hinton Agar (MHA) and incubated at 37 °C for 18–24 h. The bacterial colonies suspension in sterile normal saline was diluted until they reached a 1 × 10^6 CFC/mL concentration, which was then compared to the McFarland scale. This step provided a standard bacterial suspension (1 × 10^6 CFU/mL), which was used for the following assays.
(§4) The broth microdilution technique was used for the MIC and MBC determination, which was expressed according to Clinical and Laboratory Standards Institute (CLSI) standard M07 guideline. The compounds were prepared as a stock solution by dissolving in dimethyl sulfoxide (DMSO) with the concentration ranging from 0.195 to 200 µg/mL. DMSO and penicillin G or gentamicin were used as normal and standard drug control. […] Three replicates were performed for each experiment.

[2] = system: A549 (lung adenocarcinoma); test: Cytotoxicity, MTT assay, A549; format: cell-based, human; details: Homo sapiens, A549, A549 cell line, mean ± s.d. (n = 3)
Method: (§5) The in vitro cytotoxicity assay toward a panel of human cancer cell lines of several clerodane diterpenoids has been well investigated. Thus, the isolates in adequate amounts were tested against MOLT-3 (acute lymphoblastic leukemia), HuCCA-1 (cholangiocarcinoma), HepG2 (hepatocellular carcinoma), A549 (lung adenocarcinoma), HeLa (cervical carcinoma), and MDA-MB-231 (triple negative breast cancer) cancer cell lines using the MTT and XTT methods. Doxorubicin and etoposide were used as positive controls.
(§6) The MTT (3-(4,5-dimethylthiazol-2-yl)-2,5-diphenyltetrazolium bromide) assay was employed for the cytotoxic evaluation against five human cancer cell lines, including HepG2, A549, MDA-MB-231, HeLa, and HuCCA-1, while the XTT (2,3-bis-(2-methoxy-4-nitro-5-sulphenyl)-(2H)-tetrazolium-5-carboxanilide) method was used for MOLT-3 cancer cell.

[3] = system: MOLT-3 (acute lymphoblastic leukemia); test: Cytotoxicity, XTT method, MOLT-3; format: cell-based; details: Homo sapiens; MOLT-3 cell line; XTT; mean ± s.d. (n = 3); read-out: IC50, MOLT-3
Method: as §5, §6

[4] = system: HepG2 (hepatocellular carcinoma); test: Cytotoxicity, MTT assay, HepG2; format: cell-based, human; details: Homo sapiens, HepG2, HepG2 cell line; MTT; mean ± s.d. (n = 3); read-out: IC50, HepG2
Method: as §5, §6

[5] = system: MOLT-3, HuCCA-1, HepG2, A549, HeLa, and MDA-MB-231 cancer cell lines; test: Cytotoxicity toward panel of human cancer cell lines (MTT and XTT); format: cell-based; details: Homo sapiens; range over all cell lines tested; read-out: IC50 range over the cancer cell line panel
From the text: The in vitro cytotoxicity assay toward a panel of human cancer cell lines of several clerodane diterpenoids has been well investigated. […] Doxorubicin and etoposide were used as positive controls.

[6] = system: MDA-MB-231 (triple negative breast cancer); test: Cytotoxicity, MTT assay, MDA-MB-231; format: cell-based, human; details: MTT, mean ± s.d. (n = 3), read-out: IC50, MDA-MB-231
Method: as §5, §6

[7] = system: HuCCA-1 (cholangiocarcinoma); test: Cytotoxicity, MTT assay, HuCCA-1; format: cell-based, human; details: Homo sapiens, HuCC-A1, HuCCA-1 cell line; MTT; mean ± s.d. (n = 3); read-out: IC50, HuCCA-1
Method: as §5, §6

[8] = system: HeLa (cervical carcinoma); test: Cytotoxicity, MTT assay, HeLa; format: cell-based, human; details: Homo sapiens, HeLa, HeLa cell line; MTT; mean ± s.d. (n = 3); read-out: IC50, HeLa
Method: as §5, §6

[9] = system: Staphylococcus aureus (ATCC 6538); test: Antibacterial broth microdilution (MIC/MBC), S. aureus; format: cell-based; details: ATCC6538
Method: as §1, §2, §3, §4

aromatase (CYP19) = target: T1, aromatase (CYP19) (Homo sapiens, UniProt P11511); test: Aromatase (CYP19) inhibition assay; format: biochemical; details: for inhibition at 12.5 µM: at a concentration of 12.5 µM; for Aromatase inhibitory activity (in words): at the concentration up to 12.15 µM
T1 construct: purchased
T1 sequence (P11511 1-503): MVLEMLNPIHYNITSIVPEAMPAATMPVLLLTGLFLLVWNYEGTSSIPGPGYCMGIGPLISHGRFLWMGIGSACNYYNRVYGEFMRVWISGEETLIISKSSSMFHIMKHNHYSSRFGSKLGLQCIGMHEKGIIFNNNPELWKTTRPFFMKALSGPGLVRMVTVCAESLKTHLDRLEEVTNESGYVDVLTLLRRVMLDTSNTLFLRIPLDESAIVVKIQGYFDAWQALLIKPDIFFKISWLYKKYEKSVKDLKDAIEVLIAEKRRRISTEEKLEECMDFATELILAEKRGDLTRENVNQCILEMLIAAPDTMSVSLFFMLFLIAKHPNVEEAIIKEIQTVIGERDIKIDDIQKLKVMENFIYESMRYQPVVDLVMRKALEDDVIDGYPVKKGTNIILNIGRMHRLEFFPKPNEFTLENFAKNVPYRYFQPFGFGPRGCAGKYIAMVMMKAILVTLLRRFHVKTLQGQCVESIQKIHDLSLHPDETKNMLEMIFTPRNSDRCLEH
Method: as §1
The aromatase assay used a method previously designed by Stresser and co-workers.

[10] = system: Bacillus cereus (ATCC 11778); test: Antibacterial broth microdilution (MIC/MBC), B. cereus; format: cell-based; details: Bacillus cereus, ATCC11778
Method: as §1, §2, §3, §4

[11] = Homo sapiens, MDA-MB-231, MDA-MB-231 cell line

Row | Compound | MBC [1] | MIC [1] | IC50 [2] | IC50 [3] | IC50 [4] | IC50 [5] | IC50 [6, 11] | IC50 ([6]; MDA-MB-231 cell line) | IC50 [7] | IC50 [8] | MBC [9] | MIC [9] | inhibition at 12.5 µM (aromatase (CYP19)) | Aromatase inhibitory activity (in words) (aromatase (CYP19)) | MBC [10] | MIC [10]
1 | C=CC(=C)CC[C@]1(C)[C@H](C)C[C@H](O)[C@@]23C(=C[C@H](OC(=O)[C@@H](C)CC)C[C@@H]12)[C@@H](OC(C)=O)O[C@H]3OC(C)=O [Compound 7, isocaseamembrin E] | > 200 µg/mL | 100 µg/mL (≈ 193 µM) | 0.3 ± 0.02 µM | 1.4 ± 0.2 µM | 1.9 ± 0.4 µM | 0.3 to 2.9 µM | 2 to 2.2 µM | 2 ± 0.2 µM | 0.7 ± 0.1 µM | 0.9 ± 0.1 µM | 50 µg/mL (≈ 96.4 µM) | 25 µg/mL (≈ 48.2 µM) | 0% | did not show activity | > 200 µg/mL | 6.25 µg/mL (≈ 12.1 µM)
2 | C=CC(=C)CC[C@]1(C)[C@H](C)C[C@H](O)[C@@]23C(=C[C@H](OC(=O)CC(C)C)C[C@@H]12)[C@@H](OC(C)=O)O[C@H]3OC(C)=O [Compound 8, corymbulosin X] | > 200 µg/mL | > 200 µg/mL | 0.6 ± 0.1 µM | 1.2 ± 0.2 µM | 2.4 ± 0.1 µM | 0.3 to 2.9 µM | 2 to 2.2 µM | 2.2 ± 0.1 µM | 0.4 ± 0.1 µM | 1.8 ± 0.2 µM | > 200 µg/mL | > 200 µg/mL |  |  | 50 µg/mL (≈ 96.4 µM) | 25 µg/mL (≈ 48.2 µM)
3 | C=CC(=C)CC[C@]1(C)[C@H]2C[C@H](OC(=O)CC(C)C)C=C3[C@H](OC(C)=O)O[C@H](OC(C)=O)[C@@]32[C@H](OC)C[C@@H]1C [Compound 9, caseargrewiin A] | > 200 µg/mL | > 200 µg/mL | 5 ± 0.5 µM | 3 ± 0.2 µM | 9.5 ± 0.8 µM |  | 8.1 ± 0.4 µM |  | 5.2 ± 0.4 µM | 5.2 ± 0.1 µM | > 200 µg/mL | > 200 µg/mL | 31% | did not show activity | 100 µg/mL (≈ 188 µM) | 100 µg/mL (≈ 188 µM)
